Data from article PMC10988713 (FEBS Open Bio, 2024).

Columns and labels:
HsHAD [1] = biological target: T1, HsHAD (Homo sapiens, UniProt Q16836); experiment: stopped-flow NADH fluorescence, koff/kon; format: binding
T1 construct: gene HADH; N-terminal His6 tag in pET28a, E. coli BL21(DE3) pLysS, dimer of 35 kDa subunits
T1 sequence (Q16836 13-314): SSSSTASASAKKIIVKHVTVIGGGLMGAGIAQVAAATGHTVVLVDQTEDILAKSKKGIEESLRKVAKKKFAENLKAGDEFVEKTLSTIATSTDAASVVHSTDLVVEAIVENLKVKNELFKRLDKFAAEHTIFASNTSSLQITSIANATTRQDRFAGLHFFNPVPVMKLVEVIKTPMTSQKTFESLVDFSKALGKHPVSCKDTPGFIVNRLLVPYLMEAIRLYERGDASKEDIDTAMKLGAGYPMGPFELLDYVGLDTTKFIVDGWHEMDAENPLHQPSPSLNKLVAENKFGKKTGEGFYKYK
Excerpt: stopped-flow NADH fluorescence, koff/kon on HsHAD

RnMFE1 [2] = biological target: T2, RnMFE1 (Rattus norvegicus, UniProt P07896, E123A); experiment: stopped-flow NADH fluorescence, koff/kon; format: binding
T2 construct: gene Ehhadh
Excerpt: (§1) stopped-flow NADH fluorescence, koff/kon on RnMFE1

RnMFE1 [3] = biological target: T3, RnMFE1 (Rattus norvegicus, UniProt P07896); experiment: stopped-flow NADH fluorescence, koff/kon; format: binding
T3 construct: gene Ehhadh
Excerpt: as §1

BCDE [4] = biological target: T4, BCDE (Rattus norvegicus, UniProt P07896); experiment: stopped-flow NADH fluorescence, koff/kon; format: binding
T4 construct: gene Ehhadh; truncated RnMFE1 from Ala260 (ASGQ) to the C-terminus, without domain A (ECH part); N-terminal His6 tag, E. coli BL21(DE3) pLysS
Excerpt: stopped-flow NADH fluorescence, koff/kon on BCDE

BCDE [5] = biological target: T4, BCDE; experiment: stopped-flow tryptophan fluorescence, koff/kon; format: binding
Excerpt: stopped-flow tryptophan fluorescence, koff/kon on BCDE

RnMFE1 [6] = biological target: T2, RnMFE1; experiment: stopped-flow tryptophan fluorescence, koff/kon; format: binding
Excerpt: (§2) stopped-flow tryptophan fluorescence, koff/kon on RnMFE1

RnMFE1 [7] = biological target: T3, RnMFE1; experiment: stopped-flow tryptophan fluorescence, koff/kon; format: binding
Excerpt: as §2

HsHAD [8] = biological target: T1, HsHAD; experiment: stopped-flow tryptophan fluorescence, koff/kon; format: binding
Excerpt: stopped-flow tryptophan fluorescence, koff/kon on HsHAD

RnMFE1 [9] = biological target: T3, RnMFE1; experiment: stopped-flow NADH formation, kobs vs substrate; format: biochemical; conditions: 1 mM NAD+, pH 9.0, 50 mM Tris, 50 mM KCl, room temperature; coupled ECH and HAD reactions of the same enzyme
Excerpt: stopped-flow NADH formation, kobs vs substrate on RnMFE1

T3 sequence (P07896 whole entry): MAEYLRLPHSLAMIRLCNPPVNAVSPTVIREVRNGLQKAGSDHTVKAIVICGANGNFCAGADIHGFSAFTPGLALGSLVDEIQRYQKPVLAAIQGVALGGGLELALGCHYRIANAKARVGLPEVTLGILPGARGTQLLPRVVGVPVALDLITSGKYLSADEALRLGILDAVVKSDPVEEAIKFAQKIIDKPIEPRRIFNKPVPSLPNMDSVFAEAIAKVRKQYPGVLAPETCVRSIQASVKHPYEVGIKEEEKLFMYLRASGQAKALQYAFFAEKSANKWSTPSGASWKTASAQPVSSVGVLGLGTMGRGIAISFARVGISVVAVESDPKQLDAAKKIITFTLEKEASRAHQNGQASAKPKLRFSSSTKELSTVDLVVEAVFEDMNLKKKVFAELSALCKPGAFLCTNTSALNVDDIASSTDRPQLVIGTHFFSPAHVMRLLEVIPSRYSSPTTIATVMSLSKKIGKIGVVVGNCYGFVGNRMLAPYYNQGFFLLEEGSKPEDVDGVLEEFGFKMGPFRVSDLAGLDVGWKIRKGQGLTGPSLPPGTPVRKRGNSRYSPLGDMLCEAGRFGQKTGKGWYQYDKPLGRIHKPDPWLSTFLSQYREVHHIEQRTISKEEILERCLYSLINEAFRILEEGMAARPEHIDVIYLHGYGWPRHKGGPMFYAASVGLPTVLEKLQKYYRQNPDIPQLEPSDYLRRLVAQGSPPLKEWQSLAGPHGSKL
T2 sequence (P07896 whole entry E123A): as the sequence (P07896 whole entry) above, with E123A counted along it
T4 sequence (P07896 260-722): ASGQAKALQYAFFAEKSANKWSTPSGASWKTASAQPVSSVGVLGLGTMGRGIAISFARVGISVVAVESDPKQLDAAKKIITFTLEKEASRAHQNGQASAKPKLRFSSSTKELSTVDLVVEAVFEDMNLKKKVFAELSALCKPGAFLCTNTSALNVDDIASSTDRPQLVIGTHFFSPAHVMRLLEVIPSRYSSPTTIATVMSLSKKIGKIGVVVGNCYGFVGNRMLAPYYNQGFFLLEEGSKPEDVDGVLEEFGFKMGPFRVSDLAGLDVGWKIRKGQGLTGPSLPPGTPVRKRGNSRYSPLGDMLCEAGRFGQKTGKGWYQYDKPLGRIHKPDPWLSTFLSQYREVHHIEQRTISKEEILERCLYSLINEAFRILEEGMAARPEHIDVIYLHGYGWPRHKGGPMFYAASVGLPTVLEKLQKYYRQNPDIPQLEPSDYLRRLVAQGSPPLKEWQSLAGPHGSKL

SMILES: NC(=O)C1=CN([C@@H]2O[C@H](COP(=O)(O)OP(=O)(O)OC[C@H]3O[C@@H](n4cnc5c(N)ncnc54)[C@H](O)[C@@H]3O)[C@@H](O)[C@H]2O)C=CC1 [NADH]
- Kd (HsHAD [1]): 7 µM
- Kd (RnMFE1 [2]): 7.5 µM
- Kd (RnMFE1 [3]): 5 µM
- Kd (BCDE [4]): 5.7 µM

SMILES: NC(=O)c1ccc[n+]([C@@H]2O[C@H](COP(=O)(O)OP(=O)(O)OC[C@H]3O[C@@H](n4cnc5c(N)ncnc54)[C@H](O)[C@@H]3O)[C@@H](O)[C@H]2O)c1 [NAD^+]
- Kd (BCDE [5]): 7.5 µM
- Kd (RnMFE1 [6]): 8 µM
- Kd (RnMFE1 [7]): 7.6 µM
- Kd (HsHAD [8]): 6 µM

SMILES: C/C=C/C(=O)SCCNC(=O)CCNC(=O)[C@H](O)C(C)(C)COP(=O)(O)OP(=O)(O)OC[C@H]1O[C@@H](n2cnc3c(N)ncnc32)[C@H](O)[C@@H]1OP(=O)(O)O [2E‐butenoyl‐CoA]
- Kd (RnMFE1 [9]): 1.9 ± 0.1 µM
